Test results taken from PMC3716696 (PLoS ONE, 2013).
“Also recorded” adds a separate entry of the source. Non-standard residues stand in square brackets, D forms with d. Residues, ends and D or L forms follow the SMILES beside them. *: point of attachment. Sta = CC(C)C[C@H](N)[C@@H](O)CC(=O)O; Isovaleryl = CC(C)CC(=O)*

Columns and labels:
[1] = N-terminal SP fragment formation in spinal cord soluble and membrane lysates; format: in vitro ADME, mouse; settings: for Degradation product of SP1–9 in spinal cord lysates: SP1–9 100 μM incubated in spinal cord lysate, 37°C, 1 h, LC-MS (Fig. S3)
Description: Three mouse spinal cords were dounce homogenized in 1.1 mL phosphate buffered saline (PBS) on ice and then sonicated for 15 s at 4°C. Tissue debris was separated by centrifuging the sample at 5,000×g for 20 min at 4°C. The soluble fraction was collected after ultracentrifugation of the sample at 55,000×g for 1 h at 4°C. The membrane pellet that remained was washed 3x with 600 μL PBS. The pellet was then suspended in 100 μL PBS by sonication for 5 s at 4°C. The sample was ultracentrifugation at 55,000×g for 1 h at 4°C and the supernatant was separated as a wash membrane sample. The pellet was suspended in 100 μL of 1 mM sodium deoxycholate (Alfa Aesar) by sonication for 5 s at 4°C then stirred for 30 min at 4°C. Ultracentrifugation of the sample at 55,000×g for 1 h at 4°C separated the supernatant as a 1 mM deoxycholate-solubilized membrane fraction. The remaining pellet was washed 3x with 600 μL 1 mM deoxycholate solution. The pellet was subsequently suspended in 4, 12, and 24 mM deoxycholate following the same cycle. The final pellet was suspended in 100 μL PBS. The protein content in the soluble and membrane lysates was quantified by the Bradford assay. […] The reactions were quenched with neat formic acid and speed vac dried. The samples were dissolved in 0.1% formic acid (aq) and analyzed by MALDI-TOF MS for SP-degrading activity (i.e. formation of SP1–7 and SP1–9) using the method outlined in “MALDI-TOF MS and LC-MS/MS analysis of in vitro peptides” section. […]
MALDI-TOF MS was performed with α-cyano-4-hydroxycinnamic acid as the matrix using 2 μL of a 50 μM reconstituted degradation reaction solution (based on initial SP quantities). […]
To determine the candidate proteolytic pathway or pathways for SP degradation in the spinal cord, we separated tissue lysates from mouse spinal cords into membrane and soluble fractions, incubated them with full-length SP for varying lengths of time (15, 60, 240 min) and then analyzed the quenched reactions by MALDI mass spectrometry to identify any SP fragments that had been produced. […]

NEP [2] = assay: SP degradation and SP levels in WT and Nep–/– spinal cord; format: in vitro ADME, mouse; settings: 1 mg/mL WT and Nep–/– spinal cord membrane lysates, LC-MS/MS
Description: The levels of SP in WT and Nep^–/– mice spinal cord tissue (N = 4) were compared by IDMS using Top 6 MS/MS as described previously. The degradation of SP was compared in 1 mg/mL WT and Nep^–/– mice spinal cord membrane lysates using LC-MS/MS analysis following the above method.

[3] = tested on: SP-degrading activity of spinal cord membrane lysates; assay: SP degradation in spinal cord membrane lysates with general enzyme class inhibitors; format: biochemical, mouse; settings: membrane lysate 1 mg/mL, 30 min pre-incubation 37°C, SP 100 μM, 1 h 37°C; 1 mM o-phenanthroline, 10 μM pepstatin A, 1 mM PMSF; LC-MS, N = 4
Description: The membrane fraction of spinal cord lysates (1 mg/mL) were pre-incubated at 37°C for 30 minutes separately with each of the following inhibitors (N = 4): 10 μM E-64 (cysteine protease), 1 mM iodoacetamide (cysteine protease), 1 mM o-phenanthroline (metalloprotease), 10 μM pepstatin A (aspartyl protease), 1 mM phenylmethylsulfonyl fluoride (PMSF, serine protease), 1 mM diisopropylfluorophosphate (serine protease), and vehicle (PBS with DMSO for 5% DMSO final concentration in reaction). After the pre-incubation with each inhibitor, SP was added to 100 μM final concentration. The reactions proceeded at 37°C for 1 h. Dried samples were dissolved in 0.1% formic acid (aq) and analyzed by LC-MS/MS for SP-degrading activity (i.e. formation of SP1–7 and SP1–9) using the method outlined in “MALDI-TOF MS and LC-MS/MS analysis of in vitro peptides” section.
(§1) For LC-MS analysis, an Agilent 6220 LC-ESI-TOF instrument was used in the positive mode. A Bio-Bond C18 (5 μm, 150×2.1 mm) column was used together with a precolumn (C18, 3.5 μm, 2×20 mm). Following injection of 25 μL of 5 μM solutions, the samples were trapped at an isocratic flow rate of 0.1 ml/min for five minutes and eluted at a flow rate of 0.25 mL/min via a mobile phase gradient of 2–100% B in 40 min (Mobile Phase A: 0.1% formic acid in water, Mobile Phase B: 0.1% formic acid in acetonitrile). MS analysis was performed with an electrospray ionization (ESI) source. The capillary voltage was set at 4.0 kV and the fragmentor voltage to 100 V. The drying gas temperature was 350°C, the drying gas flow rate was 10 L/min, and the nebulizer pressure was 45 psi. Data was collected in the centroid mode using a mass range of 100–500 Da. The peptides were analyzed by mass extraction of the +3 charge state.

[4] = tested on: SP-degrading / SP1–9-producing activity of spinal cord membrane lysates; assay: SP degradation in spinal cord membrane lysates with metalloprotease inhibitors; format: biochemical, mouse; settings: membrane lysate 1 mg/mL, 30 min pre-incubation 37°C, SP 100 μM, 1 h 37°C, LC-MS, N = 4; for Inhibition of SP degradation (in words): inhibitor 100 μM (TIMP2 4 μM)
Description: All inhibitors were present at 100 μM except for TIMP2, which was present at 4 μM. After the pre-incubation with each inhibitor, either SP or SP1–9 was added to 100 μM final concentration. The reactions proceeded at 37°C for 1 h. Dried samples were dissolved in 0.1% formic acid (aq) and analyzed by LC-MS/MS for SP or SP1–9-degrading activity.
as §1

NEP [5] = settings: cited from earlier work
ECE-1 = settings: cited from earlier work
[6] = mouse spinal cord tissue (endogenous peptides, boiled and extracted); settings: mouse (C57BL/6)
[7] = membrane fraction of spinal cord lysates (1 mg/mL) with metalloprotease inhibitors; settings: mouse, 37°C, up to 1 h
Pitrilysin = settings: cited from earlier work
ECE-2 = settings: cited from earlier work
Meprin 1A = settings: cited from earlier work
[8] = soluble fraction of mouse spinal cord lysates (1 mg/mL); settings: mouse (C57BL/6), 37°C, up to 240 min
[9] = membrane fraction of spinal cord lysates (1 mg/mL) with class-selective inhibitors; settings: mouse, 37°C, up to 1 h
[10] = cell lysates with synthetic peptide; synthetic peptide introduced into a living tissue (pseudo-in vivo); settings: cited from earlier work
MMP9 = settings: cited from earlier work
[11] = membrane fraction of mouse spinal cord lysates (1 mg/mL); settings: mouse (C57BL/6), 37°C, up to 240 min
ACE = settings: cited from earlier work
[12] = membrane fraction of spinal cord lysates (1 mg/mL); settings: mouse (C57BL/6), 37°C, up to 1 h
[13] = in vivo; cited from earlier work

With `CSCC[C@H](NC(=O)[C@H](CC(C)C)NC(=O)CNC(=O)[C@H](Cc1ccccc1)NC(=O)[C@H](Cc1ccccc1)NC(=O)[C@H](CCC(N)=O)NC(=O)[C@H](CCC(N)=O)NC(=O)[C@@H]1CCCN1C(=O)[C@H](CCCCN)NC(=O)[C@@H]1CCCN1C(=O)[C@@H](N)CCCN=C(N)N)C(N)=O` [SP, Substance P] the “SP fragments formed in soluble fraction of spinal cord lysate” value ([1]; pH 7.34) was “No discernable fragments” and the “SP degradation in NEP+/+ vs NEP–/– spinal cord lysates” value (NEP [2]) was “no significant difference”.
With `CC(C)CC(=O)N[C@H](C(=O)N[C@H](C(=O)N[C@@H](CC(C)C)[C@@H](O)CC(=O)N[C@@H](C)C(=O)N[C@@H](CC(C)C)[C@@H](O)CC(=O)O)C(C)C)C(C)C` [pepstatin A] (Isovaleryl-VV[Sta]A[Sta]-OH) the “Effect on SP1–7 production” value [3] was “regulate SP1-7 production”, the “Inhibition of SP1–9 production” value [3] was “small effect” and the “Inhibition of SP degradation (SP levels vs vehicle)” value (from here on “Inhibition … (SP levels vs vehicle)”) [3] was “Modest increases”.
In the case of `c1cnc2c(c1)ccc1cccnc12` [O-phenanthroline], the “Effect on SP1–7 production” value [3] is reported as “regulate SP1-7 production”, the “Inhibition of SP1–9 production” value [3] is reported as “most potent inhibitor of SP1–9 production; also recorded: strongest inhibitor of SP1–9 production” and the “Inhibition … (SP levels vs vehicle)” value [3] is reported as “most effective compound at inhibiting SP degradation; also recorded: twice as high as the vehicle control”.
For `CC(C)C[C@H](NP(=O)(O)O[C@@H]1O[C@@H](C)[C@H](O)[C@@H](O)[C@H]1O)C(=O)N[C@@H](Cc1c[nH]c2ccccc12)C(=O)O` [phosphoramidon], the “Inhibition of SP degradation (in words)” value [4] was “could inhibit”, the “Inhibition of SP1–9 production (in words)” value ([4]; inhibitor 100 μM) was “could inhibit” and the “Inhibition of SP1–9 production (in words)” value ([4]; inhibitor 100 μM, listed as Phosphoramidon) was “slows SP1–9 production”.
For H2N-RPKPQQFFGLM-CONH2, the cleaved bond (NEP [5]) is listed as “G9-L10”, the cleaved bond (ECE-1) is listed as “G9-L10” and the cleaved bond [6] is listed as “G9-L10, major”. For the same compound, the fragment found [6] was “SP1–7, major”, the cleaved bond [7] was “G9-L10, major” and the cleaved bond (Pitrilysin) was “G9-L10”. For the same compound, the cleaved bond (ECE-2) was “G9-L10”, the cleaved bond (Meprin 1A) was “G9-L10” and the not cleaved [8] was “No discernable fragments appeared in the soluble fraction”. For the same compound, the cleaved bond [9] was “G9-L10, major”, the fragment found [9] was “SP1–7” and the fragment found [10] was “SP1–9; also recorded: SP1–8; also recorded: SP1–7; also recorded: SP5–11; also recorded: SP6–11; also recorded: SP7–11; also recorded: SP8–11”. The cleaved bond (MMP9) was “G9-L10”, the cleaved bond [11] was “G9-L10, major” and the fragment found [11] was “SP1–10; also recorded: SP1–8; also recorded: SP1–7; also recorded: SP3-11”. For the same compound, the cleaved bond (ACE) was “G9-L10”.
In the case of `N=C(N)NCCC[C@H](N)C(=O)N1CCC[C@H]1C(=O)N[C@@H](CCCCN)C(=O)N1CCC[C@H]1C(=O)N[C@@H](CCC(N)=O)C(=O)N[C@@H](CCC(N)=O)C(=O)N[C@@H](Cc1ccccc1)C(=O)N[C@@H](Cc1ccccc1)C(=O)NCC(=O)O` [SP1–9] (H-RPKPQQFFG-OH), the “Degradation product of SP1–9 in spinal cord lysates” value [1] is reported as “SP1–7 was produced” and the “Degradation product of SP1–9 in spinal cord lysates” value ([1]; listed as SP 1–9) is reported as “SP1–7 is produced”.
For `CCCCC[C@H](CC(=O)NO)C(=O)N[C@H](C(=O)N1CCC[C@H]1CO)C(C)C` [actinonin], the “Inhibition of SP degradation (in words)” value [4] was “could inhibit” and the “Inhibition of SP1–9 production (in words)” value ([4]; inhibitor 100 μM) was “could inhibit”.
With `O=S(=O)(F)Cc1ccccc1` [PMSF, phenylmethylsulfonyl fluoride] the “Effect on SP1–7 production” value [3] was “regulate SP1-7 production”, the “Inhibition of SP1–9 production” value [3] was “small effect” and the “Inhibition … (SP levels vs vehicle)” value [3] was “Modest increases”.
With H-RPKPQQFFG-OH the fragment found [12] was “SP1–7”.
For `CNC(=O)[C@H](Cc1c[nH]c2ccccc12)NC(=O)[C@@H](CC(=O)NO)CC(C)C` [GM6001], the Bioavailability [13] is listed as “bioavailable”, the “Inhibition of SP degradation (in words)” value [4] is listed as “most effective compound at preventing SP degradation; also recorded: least amount of SP degradation” and the “Decrease in SP1–9 production compared to vehicle” value ([4]; inhibitor 100 μM) is listed as “greater than 10 fold”. For the same compound, the “Increase in SP levels compared to vehicle” value ([4]; inhibitor 100 μM) was ~2 fold and the “Inhibition of SP1–9 production (in words)” value ([4]; inhibitor 100 μM) was “best inhibitor of SP1–9 production; also recorded: strongly inhibited; also recorded: potently blocks”.
